The source of these data is US20230323414A1, “ENZYME DEHYDROXYLATING HYDROXYL GROUP AT 9-POSITION OF UROLITHIN COMPOUND” (DAICEL CORPORATION, priority 2020, published 2023).

The subject of this test is enzyme dehydroxylating the hydroxyl group at the 9-position of urolithins. Put plainly: Effect of cofactor on enzyme activity (DEAE fraction). It counts as biochemical, Clostridium bolteae JCM 12243 strain. Particulars: for Effect of cofactor on enzyme activity: cofactor individually added; for Relative activity: control without cofactor = 100%, DEAE fraction. The procedure: A 100 mM Gly/NaOH buffer (pH 9.5) containing 0.05 mg/mL of urolithin C, 5 mM of NADH, and 1 μM of DTT was mixed with a reaction solution for measuring the enzyme activity of each fraction corresponding to 40 mL of the medium to give a total volume of 500 μL, and the mixture was placed in a 1.5-mL tube. A gas phase in an anaerobic chamber was used as a gas phase (Vinyl Anaerobic Chamber available from Coy Labs), and the mixture was reacted at 45° C. for 13 to 18 hours. After completion of the reaction, 200 μL of N,N-dimethylacetamide containing 10% -formic acid was added and mixed. Then, the mixture was centrifuged (10,000 rpm. 4° C., 3 minutes), and the resulting supernatant was analyzed by HPLC.
Solutions were prepared to contain a cofactor in a concentration as shown in Table 2 in the reaction solution for measuring the enzyme activity described in Experimental Example 5, and urolithin A produced after the reaction was quantified. The DEAE fraction was used as the enzyme.
In addition, FAD refers to flavin adenine dinucleotide.

In the case of `NC(=O)C1=CN([C@@H]2O[C@H](COP(=O)(O)OP(=O)(O)OC[C@H]3O[C@@H](n4cnc5c(N)ncnc54)[C@H](O)[C@@H]3O)[C@@H](O)[C@H]2O)C=CC1` [No. 2, reduced nicotinamide adenine dinucleotide], the “Effect of cofactor on enzyme activity” value was “Increase in activity”. Also, the Relative activity (one cofactor at 10 mM) was determined as 186%.

On to `Cc1cc2nc3c(=O)[nH]c(=O)nc-3n(C[C@H](O)[C@H](O)[C@H](O)COP(=O)(O)OP(=O)(O)OC[C@H]3O[C@@H](n4cnc5c(N)ncnc54)[C@H](O)[C@@H]3O)c2cc1C` [No. 4, flavin adenine dinucleotide], for which the Relative activity (one cofactor at 0.2 mM) was found to be 95%.

With `Cc1cc2nc3c(=O)[nH]c(=O)nc-3n(C[C@H](O)[C@H](O)[C@H](O)COP(=O)(O)O)c2cc1C` [No. 5, flavin mononucleotide], where the note is “one cofactor at 0.2 mM”, the Relative activity amounted to 96%.

Turning to `NC(=O)C1=CN([C@@H]2O[C@H](COP(=O)(O)OP(=O)(O)OC[C@H]3O[C@@H](n4cnc5c(N)ncnc54)[C@H](OP(=O)(O)O)[C@@H]3O)[C@@H](O)[C@H]2O)C=CC1` [No. 3, reduced nicotinamide adenine dinucleotide phosphate], the “Effect of cofactor on enzyme activity” value was “Increase in activity”. In addition, the Relative activity (one cofactor at 10 mM) was 161%.
